From patent US20080009418A1, “Selective Inhibitors” (Alchemia LTD., priority 2004, published 2008)

Tests used:
Human δ-opioid (DOP) = biological target: T1, Human δ-opioid (DOP) (Homo sapiens, UniProt P41143); test: Radioligand binding, human δ-opioid (DOP) membranes, FlashPlate, [3H]-Bremazocine; conditions: compound at 10 μM, [3H]-Bremazocine
T1 construct: purchased Perkin Elmer Biosignal
Outline: (§1)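 Cloned human receptor membranes were coated onto FlashPlate wells and incubated with radioligand and compound (added from a 0.5 mM DMSO daughter plate) for 1 hour at room temperature in the dark. Scintillation counting gave percent inhibition, with DMSO defining total and reference ligand defining non-specific binding.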

Human κ-Opioid (KOP) = biological target: T2, Human κ-Opioid (KOP) (Homo sapiens, UniProt P41145); test: Radioligand binding, human κ-opioid (KOP) membranes, filtration, [3H]-Diprenorphine; conditions: compound at 10 μM, [3H]-Diprenorphine
T2 construct: purchased Perkin Elmer Biosignal
T2 sequence (P41145 whole entry): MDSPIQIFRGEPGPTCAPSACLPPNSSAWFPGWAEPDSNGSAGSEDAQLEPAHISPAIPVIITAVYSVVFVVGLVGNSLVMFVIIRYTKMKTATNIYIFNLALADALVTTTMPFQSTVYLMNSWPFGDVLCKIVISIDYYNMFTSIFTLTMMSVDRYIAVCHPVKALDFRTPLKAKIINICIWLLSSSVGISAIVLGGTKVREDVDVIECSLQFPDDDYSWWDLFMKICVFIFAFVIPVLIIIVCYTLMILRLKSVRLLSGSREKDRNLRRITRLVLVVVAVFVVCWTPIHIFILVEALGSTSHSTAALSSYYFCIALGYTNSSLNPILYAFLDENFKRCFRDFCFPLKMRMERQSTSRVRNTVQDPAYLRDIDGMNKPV
Outline: (§2)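 Membranes from cloned human receptors were incubated with compound and radioligand for 1 hour at room temperature. Bound ligand was collected on 0.3% PEI-soaked filters, washed with cold 50 mM Tris-HCl pH 7.4, and counted by scintillation. Percent inhibition was computed against DMSO totals and reference-ligand nonspecific wells.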

Human Melanocortin (MC3) = biological target: T3, Human Melanocortin (MC3) (Homo sapiens, UniProt P41968); test: Radioligand binding, human melanocortin MC3 membranes, FlashPlate, [125I]-NDP-αMSH; conditions: compound at 10 μM, [125I]-NDP-αMSH
T3 construct: purchased Perkin Elmer Biosignal
T3 sequence (P41968 whole entry): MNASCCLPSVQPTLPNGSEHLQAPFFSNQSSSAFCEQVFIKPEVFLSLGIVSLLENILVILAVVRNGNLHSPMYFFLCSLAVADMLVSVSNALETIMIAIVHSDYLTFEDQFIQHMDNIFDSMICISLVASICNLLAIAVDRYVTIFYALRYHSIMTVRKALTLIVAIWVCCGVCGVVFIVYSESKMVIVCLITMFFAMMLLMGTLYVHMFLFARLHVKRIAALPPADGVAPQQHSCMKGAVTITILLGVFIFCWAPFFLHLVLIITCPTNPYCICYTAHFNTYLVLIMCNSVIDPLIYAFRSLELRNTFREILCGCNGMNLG
Outline: as §1

Human Melanocortin (MC4) = biological target: T4, Human Melanocortin (MC4) (Homo sapiens, UniProt P32245); test: Radioligand binding, human melanocortin MC4 membranes, FlashPlate, [125I]-NDP-αMSH; conditions: compound at 10 μM, [125I]-NDP-αMSH
T4 construct: purchased Perkin Elmer Biosignal
T4 sequence (P32245 whole entry): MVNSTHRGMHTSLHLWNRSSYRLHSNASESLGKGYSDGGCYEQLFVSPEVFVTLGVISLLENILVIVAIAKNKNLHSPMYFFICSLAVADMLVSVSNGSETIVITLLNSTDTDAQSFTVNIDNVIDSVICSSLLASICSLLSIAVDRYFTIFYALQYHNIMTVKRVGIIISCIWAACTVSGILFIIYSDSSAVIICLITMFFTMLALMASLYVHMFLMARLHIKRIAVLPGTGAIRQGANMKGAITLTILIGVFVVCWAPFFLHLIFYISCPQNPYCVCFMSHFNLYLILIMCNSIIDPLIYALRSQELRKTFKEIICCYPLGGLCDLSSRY
Outline: as §1

Human melanocortin (MC5) = biological target: T5, Human melanocortin (MC5) (Homo sapiens, UniProt P33032); test: Radioligand binding, human melanocortin MC5 membranes, FlashPlate, [125I]-NDP-αMSH; conditions: compound at 10 μM, [125I]-NDP-αMSH
T5 construct: purchased Perkin Elmer Biosignal
T5 sequence (P33032 whole entry): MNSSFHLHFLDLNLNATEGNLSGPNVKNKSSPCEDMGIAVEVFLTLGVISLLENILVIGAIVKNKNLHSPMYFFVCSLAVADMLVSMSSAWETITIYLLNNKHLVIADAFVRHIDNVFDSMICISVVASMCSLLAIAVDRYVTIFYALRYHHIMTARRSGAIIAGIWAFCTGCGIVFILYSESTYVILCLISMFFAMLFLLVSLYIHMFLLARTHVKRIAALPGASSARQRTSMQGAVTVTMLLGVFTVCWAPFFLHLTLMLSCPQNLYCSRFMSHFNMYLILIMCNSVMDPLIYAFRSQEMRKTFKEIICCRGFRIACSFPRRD
Outline: as §1

[1] = biological target: T6, Human melanin-concentrating hormone (MCH1) (Homo sapiens, UniProt Q99705); test: Radioligand binding, human melanin-concentrating hormone MCH1 membranes, FlashPlate, [125I]-S36057; conditions: compound at 10 μM; for A6 radioligand binding, percentage inhibition / A6: inhibition of radioligand binding, human melanin-concentrating hormone (MCH1): [125I]-S36057
T6 construct: purchased Perkin Elmer Biosignal
T6 sequence (Q99705 whole entry): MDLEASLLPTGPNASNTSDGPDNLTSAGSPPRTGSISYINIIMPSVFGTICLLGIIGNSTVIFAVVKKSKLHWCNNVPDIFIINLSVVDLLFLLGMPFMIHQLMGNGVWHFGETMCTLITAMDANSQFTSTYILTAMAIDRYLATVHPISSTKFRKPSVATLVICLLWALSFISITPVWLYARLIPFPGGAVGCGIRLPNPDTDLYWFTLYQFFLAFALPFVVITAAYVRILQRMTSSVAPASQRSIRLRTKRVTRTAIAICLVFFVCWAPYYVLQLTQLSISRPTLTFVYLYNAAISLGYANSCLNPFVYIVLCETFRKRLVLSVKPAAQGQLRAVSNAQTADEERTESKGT
Outline: as §1

Human μ-opioid (MOP) = biological target: T7, Human μ-opioid (MOP) (Homo sapiens, UniProt P35372); test: Radioligand binding, human μ-opioid (MOP) membranes, FlashPlate, [3H]-Naloxone; conditions: compound at 10 μM, [3H]-Naloxone
T7 construct: purchased Perkin Elmer Biosignal
T7 sequence (P35372 whole entry): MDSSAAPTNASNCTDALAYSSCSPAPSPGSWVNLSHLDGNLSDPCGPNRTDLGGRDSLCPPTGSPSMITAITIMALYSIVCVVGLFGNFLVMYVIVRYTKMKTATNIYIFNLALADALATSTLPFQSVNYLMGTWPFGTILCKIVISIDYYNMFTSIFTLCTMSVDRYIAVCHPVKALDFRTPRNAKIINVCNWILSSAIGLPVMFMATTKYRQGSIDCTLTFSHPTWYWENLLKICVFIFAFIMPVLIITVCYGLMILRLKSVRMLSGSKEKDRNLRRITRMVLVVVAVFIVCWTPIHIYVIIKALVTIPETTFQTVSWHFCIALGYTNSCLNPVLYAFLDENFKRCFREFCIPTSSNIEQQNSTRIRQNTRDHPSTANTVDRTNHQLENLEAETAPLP
Outline: as §1

Human neurokinin (NK1) = biological target: T8, Human neurokinin (NK1) (Homo sapiens, UniProt P25103); test: Radioligand binding, human neurokinin NK1 membranes, filtration, [125I]-Substance P; conditions: compound at 10 μM, [125I]-Substance P
T8 construct: purchased Perkin Elmer Biosignal
T8 sequence (P25103 whole entry): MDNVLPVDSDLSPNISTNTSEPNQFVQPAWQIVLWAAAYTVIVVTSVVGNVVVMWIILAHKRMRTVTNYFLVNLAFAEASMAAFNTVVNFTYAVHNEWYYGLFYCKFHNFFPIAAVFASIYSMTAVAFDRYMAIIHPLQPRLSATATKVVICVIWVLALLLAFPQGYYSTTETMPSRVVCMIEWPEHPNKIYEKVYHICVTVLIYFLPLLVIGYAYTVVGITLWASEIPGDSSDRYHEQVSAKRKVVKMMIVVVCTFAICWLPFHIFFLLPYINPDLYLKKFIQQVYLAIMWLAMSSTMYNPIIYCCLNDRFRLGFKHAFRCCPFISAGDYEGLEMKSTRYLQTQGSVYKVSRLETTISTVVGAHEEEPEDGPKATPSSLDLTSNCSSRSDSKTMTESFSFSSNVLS
Outline: as §2

[2] = biological target: T9, Human neuropeptide Y (NPY-Y1) (Homo sapiens, UniProt P25929); test: Radioligand binding, human neuropeptide Y NPY-Y1 membranes, FlashPlate, [125I]-PYY; conditions: compound at 10 μM, [125I]-PYY
T9 construct: purchased Perkin Elmer Biosignal
T9 sequence (P25929 1-384): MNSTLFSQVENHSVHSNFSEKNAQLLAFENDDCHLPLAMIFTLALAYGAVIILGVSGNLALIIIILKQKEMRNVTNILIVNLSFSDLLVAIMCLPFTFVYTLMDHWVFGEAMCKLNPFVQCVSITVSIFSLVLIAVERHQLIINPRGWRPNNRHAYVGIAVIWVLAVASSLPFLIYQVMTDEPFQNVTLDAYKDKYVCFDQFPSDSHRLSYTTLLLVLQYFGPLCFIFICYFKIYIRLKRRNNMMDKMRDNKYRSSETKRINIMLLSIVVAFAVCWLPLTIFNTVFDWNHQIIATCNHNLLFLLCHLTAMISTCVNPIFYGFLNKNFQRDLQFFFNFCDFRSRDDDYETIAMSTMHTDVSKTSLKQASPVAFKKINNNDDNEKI
Outline: as §1

Human opioid (ORL1) = biological target: T10, Human opioid (ORL1) (Homo sapiens, UniProt P41146); test: Radioligand binding, human opioid ORL1 membranes, FlashPlate, [125I]-Nociceptin; conditions: compound at 10 μM, [125I]-Nociceptin
T10 construct: purchased Perkin Elmer Biosignal
T10 sequence (P41146 whole entry): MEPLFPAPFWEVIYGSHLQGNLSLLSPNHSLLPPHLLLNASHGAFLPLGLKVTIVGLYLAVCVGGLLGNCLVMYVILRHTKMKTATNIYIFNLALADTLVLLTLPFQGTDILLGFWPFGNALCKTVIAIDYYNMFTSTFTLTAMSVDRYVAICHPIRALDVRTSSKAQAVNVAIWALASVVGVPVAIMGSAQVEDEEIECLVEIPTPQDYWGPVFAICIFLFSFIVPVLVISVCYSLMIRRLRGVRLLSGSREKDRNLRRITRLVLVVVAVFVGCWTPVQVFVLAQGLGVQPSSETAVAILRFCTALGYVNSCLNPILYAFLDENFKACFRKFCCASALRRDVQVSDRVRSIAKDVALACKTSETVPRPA
Outline: as §1

Mouse urotensin (mUR2) = biological target: T11, Mouse urotensin (mUR2) (Mus musculus, UniProt Q8VIH9); test: Radioligand binding, mouse urotensin mUR2 membranes, FlashPlate, [125I]-Urotensin II; conditions: compound at 10 μM, [125I]-Urotensin II
T11 construct: purchased Perkin Elmer Biosignal
T11 sequence (Q8VIH9 1-385): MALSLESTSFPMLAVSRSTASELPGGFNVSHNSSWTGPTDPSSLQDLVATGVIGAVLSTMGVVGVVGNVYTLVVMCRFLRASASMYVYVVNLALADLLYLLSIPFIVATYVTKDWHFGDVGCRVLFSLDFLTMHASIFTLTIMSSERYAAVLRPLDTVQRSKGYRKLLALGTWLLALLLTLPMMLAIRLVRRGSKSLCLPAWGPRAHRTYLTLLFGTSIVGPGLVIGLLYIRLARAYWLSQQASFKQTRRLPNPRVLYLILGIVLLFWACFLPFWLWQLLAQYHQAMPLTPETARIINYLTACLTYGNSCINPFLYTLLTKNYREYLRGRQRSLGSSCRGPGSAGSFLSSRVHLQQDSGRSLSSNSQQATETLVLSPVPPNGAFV
Outline: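 Cloned mouse urotensin (mUR2) receptor membranes from Perkin Elmer Biosignal were immobilized in FlashPlate microplates using a proprietary coating. Each well got 19.5 μl buffer, then 0.5 μl of DMSO, reference ligand, or compound. Adding 5 μl of [125I]-Urotensin II, diluted to 5× final concentration in binding buffer, started binding. Plates were sealed with TopSeal-A and incubated 1 hour at room temperature in the dark. Wells were counted for 30 seconds each on a TopCount after a 60-second delay, and percentage inhibition was calculated.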

T1 sequence (P41143 whole entry): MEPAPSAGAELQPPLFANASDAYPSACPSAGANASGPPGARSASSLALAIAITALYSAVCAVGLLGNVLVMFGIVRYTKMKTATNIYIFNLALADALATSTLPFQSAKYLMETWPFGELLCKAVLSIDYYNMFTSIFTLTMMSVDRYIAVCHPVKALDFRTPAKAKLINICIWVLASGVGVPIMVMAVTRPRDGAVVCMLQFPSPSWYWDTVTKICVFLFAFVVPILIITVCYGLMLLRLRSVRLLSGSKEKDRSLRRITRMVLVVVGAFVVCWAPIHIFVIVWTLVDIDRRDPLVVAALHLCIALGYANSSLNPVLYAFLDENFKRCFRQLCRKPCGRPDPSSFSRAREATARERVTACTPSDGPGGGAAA

Row | SMILES | A1 radioligand binding, percentage inhibition (Human δ-opioid (DOP)) | A2 radioligand binding, percentage inhibition (Human κ-Opioid (KOP)) | A3 radioligand binding, percentage inhibition (Human Melanocortin (MC3)) | A4 radioligand binding, percentage inhibition (Human Melanocortin (MC4)) | A5 radioligand binding, percentage inhibition (Human melanocortin (MC5)) | A6 radioligand binding, percentage inhibition [1] | A7 radioligand binding, percentage inhibition (Human μ-opioid (MOP)) | A8 radioligand binding, percentage inhibition (Human neurokinin (NK1)) | A9 radioligand binding, percentage inhibition [2] | A10 radioligand binding, percentage inhibition (Human opioid (ORL1)) | A11 radioligand binding, percentage inhibition (Mouse urotensin (mUR2)) | A1: inhibition of radioligand binding, human δ-opioid (DOP) (Human δ-opioid (DOP)) | A2: inhibition of radioligand binding, human κ-opioid (KOP) (Human κ-Opioid (KOP)) | A3: inhibition of radioligand binding, human melanocortin (MC3) (Human Melanocortin (MC3)) | A8: inhibition of radioligand binding, human neurokinin (NK1) (Human neurokinin (NK1)) | A9: inhibition of radioligand binding, human neuropeptide Y (NPY-Y1) [2] | A10: inhibition of radioligand binding, human opioid (ORL1) (Human opioid (ORL1)) | A11: inhibition of radioligand binding, mouse urotensin (mUR2) (Mouse urotensin (mUR2)) | further results
1 | COCC1OC(OCc2ccccc2)C(NC(=O)CCNC(=N)N)C(OCc2ccc(-c3ccccc3)cc2)C1O (stereo not shown) [compound 185] | − (“−” indicates less than 50% inhibition at 10 μM) | − (“−” indicates less than 50% inhibition at 10 μM) | − (“−” indicates less than 50% inhibition at 10 μM) | + (“+” indicates greater than 50% inhibition at 10 μM) | + (“+” indicates greater than 50% inhibition at 10 μM) | + (“+” indicates greater than 50% inhibition at 10 μM) | − (“−” indicates less than 50% inhibition at 10 μM) | + (“+” indicates greater than 50% inhibition at 10 μM) | − (“−” indicates less than 50% inhibition at 10 μM) | − (“−” indicates less than 50% inhibition at 10 μM) | − (“−” indicates less than 50% inhibition at 10 μM) | – | – | – | – | – | – | – | –
2 | CO[C@H]1[C@H](O)[C@@H](COCc2ccc(Cl)cc2)OC(OCc2ccc(Cl)cc2)[C@@H]1NC(=O)CCCNC(=N)N (stereo partly shown) [compound 108] | − (“−” indicates less than 50% inhibition at 10 μM) | − (“−” indicates less than 50% inhibition at 10 μM) | + (“+” indicates greater than 50% inhibition at 10 μM) | + (“+” indicates greater than 50% inhibition at 10 μM) | + (“+” indicates greater than 50% inhibition at 10 μM) | − (“−” indicates less than 50% inhibition at 10 μM) | − (“−” indicates less than 50% inhibition at 10 μM) | + (“+” indicates greater than 50% inhibition at 10 μM) | − (“−” indicates less than 50% inhibition at 10 μM) | − (“−” indicates less than 50% inhibition at 10 μM) | − (“−” indicates less than 50% inhibition at 10 μM) | – | – | – | – | – | – | – | –
3 | COCC1OC(OCc2ccccc2)C(NC(=O)CCCNC(=N)N)C(OCc2ccc3ccccc3c2)C1O (stereo not shown) [compound 193] | – | – | – | – | – | – | – | – | – | – | – | – | – | – | – | – | – | – | A1: inhibition of radioligand binding (Human δ-opioid (DOP); FlashPlate): − (“−” indicates less than 50% inhibition at 10 μM); A2: inhibition of radioligand binding (Human κ-Opioid (KOP); filtration): − (“−” indicates less than 50% inhibition at 10 μM); A3: inhibition of radioligand binding (Human Melanocortin (MC3); FlashPlate): + (“+” indicates greater than 50% inhibition at 10 μM); A4: inhibition of radioligand binding (Human Melanocortin (MC4); FlashPlate): + (“+” indicates greater than 50% inhibition at 10 μM); A5: inhibition of radioligand binding (Human melanocortin (MC5); FlashPlate): + (“+” indicates greater than 50% inhibition at 10 μM); A6: inhibition of radioligand binding ([1]; [125I]-S36057, FlashPlate): + (“+” indicates greater than 50% inhibition at 10 μM); A7: inhibition of radioligand binding (Human μ-opioid (MOP); FlashPlate): − (“−” indicates less than 50% inhibition at 10 μM); A8: inhibition of radioligand binding (Human neurokinin (NK1); filtration): + (“+” indicates greater than 50% inhibition at 10 μM); A9: inhibition of radioligand binding ([2]; FlashPlate): − (“−” indicates less than 50% inhibition at 10 μM); A10: inhibition of radioligand binding (Human opioid (ORL1); FlashPlate): − (“−” indicates less than 50% inhibition at 10 μM); A11: inhibition of radioligand binding (Mouse urotensin (mUR2); FlashPlate): − (“−” indicates less than 50% inhibition at 10 μM)
4 | CSC1O[C@H](COCc2ccc3ccccc3c2)[C@@H](O)[C@@H](OCc2ccc(-c3ccccc3)cc2)[C@H]1NC(=O)CCNC(=N)N (stereo partly shown) [compound 298] | – | – | – | – | – | – | – | – | – | – | – | − (“−” indicates less than 50% inhibition at 10 μM) | − (“−” indicates less than 50% inhibition at 10 μM) | − (“−” indicates less than 50% inhibition at 10 μM) | + (“+” indicates greater than 50% inhibition at 10 μM) | − (“−” indicates less than 50% inhibition at 10 μM) | − (“−” indicates less than 50% inhibition at 10 μM) | − (“−” indicates less than 50% inhibition at 10 μM) | A4: inhibition of radioligand binding, human melanocortin (MC4) (Human Melanocortin (MC4)): − (“−” indicates less than 50% inhibition at 10 μM); A5: inhibition of radioligand binding, human melanocortin (MC5) (Human melanocortin (MC5)): + (“+” indicates greater than 50% inhibition at 10 μM); A6: inhibition of radioligand binding, human melanin-concentrating hormone (MCH1) [1]: − (“−” indicates less than 50% inhibition at 10 μM); A7: inhibition of radioligand binding, human μ-opioid (MOP) (Human μ-opioid (MOP)): − (“−” indicates less than 50% inhibition at 10 μM)
5 | NCCC(=O)NC1C(OCc2ccc(Cl)cc2)OC(COCc2ccccc2)C(O)C1OCc1ccc2ccccc2c1 (single isomer, unassigned) [compound 479] | – | – | – | – | – | – | – | – | – | – | – | − (“−” indicates less than 50% inhibition at 10 μM) | − (“−” indicates less than 50% inhibition at 10 μM) | − (“−” indicates less than 50% inhibition at 10 μM) | + (“+” indicates greater than 50% inhibition at 10 μM) | − (“−” indicates less than 50% inhibition at 10 μM) | − (“−” indicates less than 50% inhibition at 10 μM) | − (“−” indicates less than 50% inhibition at 10 μM) | A4: inhibition of radioligand binding, human melanocortin (MC4) (Human Melanocortin (MC4); 10 µM): − (“−” indicates less than 50% inhibition at 10 μM); A5: inhibition of radioligand binding, human melanocortin (MC5) (Human melanocortin (MC5); 10 µM): − (“−” indicates less than 50% inhibition at 10 μM); A6: inhibition of radioligand binding, human melanin-concentrating hormone (MCH1) ([1]; 10 µM): − (“−” indicates less than 50% inhibition at 10 μM); A7: inhibition of radioligand binding, human μ-opioid (MOP) (Human μ-opioid (MOP); 10 µM): − (“−” indicates less than 50% inhibition at 10 μM)
